This is an account of results in patent US10618918B2, “Substituted boronic acids as antimicrobials” (priority 2015, dated 2020).

Test [1] concerns KP1004 KPC-2. Put plainly: Biapenem potentiation (MPC@1), strain KP1004 KPC-2. Type of test: cell-based. The note with it: minimum BLI concentration inhibiting growth with biapenem 1 μg/mL; tested up to 40 μg/mL. As for the experimental part:
(§1) Biapenem was present in the test medium at 1 μg/mL. […] Table 3 summarizes the BLI potency of biapenem potentiation (MPC@1) for two strains overexpressing class A (KPC) and class D (OXA-48) carbapenemases. Biapenem MIC for each strain is also shown.

Test [2] has as its system KP1086 OXA-48. The test is described as follows: Biapenem potentiation (MPC@1), strain KP1086 OXA-48. Type of test: cell-based. The note with it: minimum BLI concentration inhibiting growth with biapenem 1 μg/mL; tested up to 40 μg/mL. As for the experimental part: as §1
The test system of test [3] is AB1053 OXA-72. The test is described as follows: Meropenem potentiation (MPC@8), strain AB1053 OXA-72. The test is classed as cell-based, Acinetobacter baumannii. The note with it: minimum BLI concentration inhibiting growth with meropenem 8 μg/mL; tested up to 20 μg/mL.
The test system of test [4] is AB1054 OXA-23. Put plainly: Meropenem potentiation (MPC@8), strain AB1054 OXA-23. Type of test: cell-based, Acinetobacter baumannii. To be noted: minimum BLI concentration inhibiting growth with meropenem 8 μg/mL; tested up to 20 μg/mL.
Test [5] has as its target T1, purified class A, C and D enzymes (β-lactamases) (Acinetobacter baumannii, UniProt Q9L4P2).
T1 construct: rows headed: Ki (OXA-23, NCF), uM; other: purified OXA-23; nitrocefin (NCF) as reporter substrate
The test is described as follows: biochemical. To be noted: purified OXA-23; nitrocefin (NCF) as reporter substrate. Type of test: biochemical.

In test [6] the target is purified class A, C and D enzymes (β-lactamases) (Enterobacter cloacae, UniProt P05364). The test is described as follows: biochemical. The test is classed as biochemical.
Sequence of purified class A, C and D enzymes (β-lactamases) (Enterobacter cloacae, UniProt P05364) (P05364 21-381): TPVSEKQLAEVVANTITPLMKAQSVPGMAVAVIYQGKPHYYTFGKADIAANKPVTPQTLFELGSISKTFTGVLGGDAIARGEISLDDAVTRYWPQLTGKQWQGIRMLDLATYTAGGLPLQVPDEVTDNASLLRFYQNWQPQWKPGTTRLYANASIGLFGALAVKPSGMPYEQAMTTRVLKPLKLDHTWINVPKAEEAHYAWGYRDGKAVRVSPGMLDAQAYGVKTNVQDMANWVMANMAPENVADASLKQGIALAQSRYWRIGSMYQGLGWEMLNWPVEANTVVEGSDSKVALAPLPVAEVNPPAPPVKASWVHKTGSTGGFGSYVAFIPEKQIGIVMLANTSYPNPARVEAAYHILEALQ
In test [7] the target is purified class A, C and D enzymes (β-lactamases) (Escherichia coli, UniProt Q9L5C7). The test is described as follows: biochemical. The test is classed as biochemical. To be noted: purified CTX-M-14; nitrocefin (NCF) as reporter substrate.
Sequence of purified class A, C and D enzymes (β-lactamases) (Escherichia coli, UniProt Q9L5C7) (Q9L5C7 entry or part of it): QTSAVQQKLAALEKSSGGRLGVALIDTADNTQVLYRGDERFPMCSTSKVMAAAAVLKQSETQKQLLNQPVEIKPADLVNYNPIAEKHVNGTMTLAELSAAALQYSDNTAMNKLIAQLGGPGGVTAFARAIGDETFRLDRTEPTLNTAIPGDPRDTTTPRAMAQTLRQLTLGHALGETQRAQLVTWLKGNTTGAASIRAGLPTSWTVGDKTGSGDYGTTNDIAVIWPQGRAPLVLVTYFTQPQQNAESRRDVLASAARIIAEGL
Test [8] concerns the target purified class A, C and D enzymes (β-lactamases) (Klebsiella pneumoniae, UniProt Q6XEC0). The test is described as follows: biochemical. The test is classed as biochemical. The note with it: purified OXA-48; nitrocefin (NCF) as reporter substrate.
Test [9] has as its target purified class A, C and D enzymes (β-lactamases) (Klebsiella pneumoniae, UniProt Q9F663). Put plainly: biochemical. The test is classed as biochemical. To be noted: purified KPC-2; nitrocefin (NCF) as reporter substrate.
For test [10], the target named is T2, purified class A, C and D enzymes (β-lactamases) (Pseudomonas aeruginosa, UniProt P24735).
T2 construct: rows headed: Ki (Pa-AmpC, NCF), uM; other: purified Pa-AmpC; nitrocefin (NCF) as reporter substrate
T2 sequence (P24735 whole entry): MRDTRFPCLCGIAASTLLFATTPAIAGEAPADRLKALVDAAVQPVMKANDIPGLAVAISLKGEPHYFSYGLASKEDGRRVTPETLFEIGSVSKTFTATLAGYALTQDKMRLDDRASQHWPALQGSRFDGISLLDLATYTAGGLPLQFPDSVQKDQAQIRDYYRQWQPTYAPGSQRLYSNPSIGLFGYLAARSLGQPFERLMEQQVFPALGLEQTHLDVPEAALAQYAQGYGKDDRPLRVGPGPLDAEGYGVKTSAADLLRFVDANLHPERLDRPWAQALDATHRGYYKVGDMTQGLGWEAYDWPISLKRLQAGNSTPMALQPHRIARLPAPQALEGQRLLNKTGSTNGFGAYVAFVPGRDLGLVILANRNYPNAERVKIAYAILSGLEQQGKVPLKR
The test is described as follows: biochemical. The test is classed as biochemical.

Test [11] has as its system ECL1002. The test is described as follows: Aztreonam potentiation (MPC@4), strain ECL1002. The note with it: minimum BLI concentration inhibiting growth with aztreonam 4 μg/mL; tested up to 40 μg/mL.
In test [12] the test system is ec308 SHV-5. The test is described as follows: Aztreonam potentiation (MPC@4), strain ec308 SHV-5. To be noted: minimum BLI concentration inhibiting growth with aztreonam 4 μg/mL; tested up to 40 μg/mL.
Test [13] relates to ec302 TEM-10. The test is described as follows: Aztreonam potentiation (MPC@4), strain ec302 TEM-10. The note with it: minimum BLI concentration inhibiting growth with aztreonam 4 μg/mL; tested up to 40 μg/mL.
Test [14] deals with KP1004 KPC-2. The test is described as follows: Aztreonam potentiation (MPC@4), strain KP1004 KPC-2. To be noted: minimum BLI concentration inhibiting growth with aztreonam 4 μg/mL; tested up to 40 μg/mL.
In test [15] the test system is EC1010 CMY-6. The test is described as follows: Aztreonam potentiation (MPC@4), strain EC1010 CMY-6. To be noted: minimum BLI concentration inhibiting growth with aztreonam 4 μg/mL; tested up to 40 μg/mL.
In test [16] the test system is KP1010 SHV-12. The test is described as follows: Aztreonam potentiation (MPC@4), strain KP1010 SHV-12. The note with it: minimum BLI concentration inhibiting growth with aztreonam 4 μg/mL; tested up to 40 μg/mL.
In test [17] the test system is KP1009 CTX-M-15. The test is described as follows: Aztreonam potentiation (MPC@4), strain KP1009 CTX-M-15. To be noted: minimum BLI concentration inhibiting growth with aztreonam 4 μg/mL; tested up to 40 μg/mL.
For test [18], the system named is KP1005 CTX-M-14. Put plainly: Tigemonam potentiation (MPC@4), strain KP1005 CTX-M-14. To be noted: minimum BLI concentration inhibiting growth with tigemonam 4 μg/mL; tested up to 40 μg/mL.

T1 sequence (Q9L4P2 whole entry): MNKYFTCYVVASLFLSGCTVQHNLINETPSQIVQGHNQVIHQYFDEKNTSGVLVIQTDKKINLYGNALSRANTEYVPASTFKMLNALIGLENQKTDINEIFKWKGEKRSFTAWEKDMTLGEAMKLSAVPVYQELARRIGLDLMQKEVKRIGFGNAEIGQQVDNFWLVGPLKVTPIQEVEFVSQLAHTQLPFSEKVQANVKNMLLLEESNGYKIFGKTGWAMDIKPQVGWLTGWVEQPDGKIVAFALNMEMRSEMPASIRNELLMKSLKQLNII

On to `CN(C)CCOc1ccc2c(c1C(=O)[O-])O[B-](O)(O)CC2.[Na+].[Na+]` [Compound 48, Disodium; 8-[2-(dimethylamino)ethoxy]-4,4-dihydroxy-5-oxa-4-boranuidabicyclo[4.4.0]deca-1(6),7,9-triene-7-carboxylate], for which, in test [1], the “BPM MPC1 KP1004 KPC-2” value is on record as “X (X = MPC@1 ≤ 5 μg/mL)”. In addition, in test [2], the “BPM MPC1 OXA-48 KP1086” value is on record as “X (X = MPC@1 ≤ 5 μg/mL)”. Also, in test [3], the “MPM MPC8 AB1053 OXA-72” value was “X (X = MPC@1 ≤ 5 μg/mL)”. In [4], the “MPM MPC8 AB1054 OXA-23” value was “Y (Y = 5 μg/mL < MPC@1 ≤ 20 μg/mL)”. The results for the Ki in [5] and in [10] were below 100 nM and 100 to 1000 nM, respectively. Further, the “Ki (P99, NCF), uM” value in test [6] is “Y (key: X = Ki ≤ 0.1 μM; Y = 0.1 μM < Ki ≤ 1 μM; Z = Ki > 1 μM)”. In addition, the “Ki (CTX-M-14, NCF), uM” value in [7] is given as “X (X = Ki ≤ 0.1 μM)”. In addition, the “Ki (OXA-48, NCF), uM” value in test [8] is recorded as “X (X = Ki ≤ 0.1 μM)”. For the same compound, the “Ki (KPC-2, NCF), uM” value in [9] is on record as “X (X = Ki ≤ 0.1 μM)”. In addition, in [11], the “AZT MPC4 ECL1002” value is reported as “Y (Y = 5 μg/mL < MPC@4 ≤ 20 μg/mL)”. Moreover, the “AZT MPC4 SHV-5 ec308” value in test [12] is listed as “Y (Y = 5 μg/mL < MPC@4 ≤ 20 μg/mL)”. Moreover, the “AZT MPC4 TEM-10 ec302” value in test [13] was “Y (Y = 5 μg/mL < MPC@4 ≤ 20 μg/mL)”. The “AZT MPC4 KPC-2 KP1004” value in [14] is given as “X (X = MPC@4 ≤ 5 μg/mL)”. For the same compound, in test [15], the “AZT MPC4 CMY-6 EC1010” value is listed as “X (X = MPC@4 ≤ 5 μg/mL)”. For the same compound, the “AZT MPC4 SHV-12 KP1010” value in test [16] was “X (X = MPC@4 ≤ 5 μg/mL)”. In test [17], the “AZT MPC4 CTX-M-15 KP1009” value was “Y (Y = 5 μg/mL < MPC@4 ≤ 20 μg/mL)”. For the same compound, the “TIG MPC4 CTX-M-14 KP1005” value in test [18] is given as “Z (Z = MPC@4 > 20 μg/mL)”.

With `O=C([O-])c1c(CO)ccc2c1O[B-](O)(O)CC2.[Na+].[Na+]` [Compound 49, Disodium; 4,4-dihydroxy-8-(hydroxymethyl)-5-oxa-4-boranuidabicyclo[4.4.0]deca-1(6),7,9-triene-7-carboxylate], the “BPM MPC1 KP1004 KPC-2” value in test [1] was “X (X = MPC@1 ≤ 5 μg/mL)”. Besides, the “BPM MPC1 OXA-48 KP1086” value in test [2] is on record as “X (X = MPC@1 ≤ 5 μg/mL)”. In [3], the “MPM MPC8 AB1053 OXA-72” value was “Y (Y = 5 μg/mL < MPC@1 ≤ 20 μg/mL)”. Besides, in test [4], the “MPM MPC8 AB1054 OXA-23” value is on record as “Y (Y = 5 μg/mL < MPC@1 ≤ 20 μg/mL)”. Also, the Ki in [5] and in test [10] was below 100 nM in each case. The “Ki (P99, NCF), uM” value in test [6] was “X (key: X = Ki ≤ 0.1 μM; Y = 0.1 μM < Ki ≤ 1 μM; Z = Ki > 1 μM)”. Further, in test [7], the “Ki (CTX-M-14, NCF), uM” value is “X (X = Ki ≤ 0.1 μM)”. Further, in [8], the “Ki (OXA-48, NCF), uM” value is reported as “X (X = Ki ≤ 0.1 μM)”. Besides, the “Ki (KPC-2, NCF), uM” value in test [9] is given as “X (X = Ki ≤ 0.1 μM)”. In addition, in [11], the “AZT MPC4 ECL1002” value is listed as “X (X = MPC@4 ≤ 5 μg/mL)”. Further, the “AZT MPC4 SHV-5 ec308” value in [12] is “X (X = MPC@4 ≤ 5 μg/mL)”. Besides, the “AZT MPC4 TEM-10 ec302” value in test [13] was “X (X = MPC@4 ≤ 5 μg/mL)”. Moreover, the “AZT MPC4 KPC-2 KP1004” value in [14] is listed as “X (X = MPC@4 ≤ 5 μg/mL)”. In addition, the “AZT MPC4 CMY-6 EC1010” value in [15] is given as “X (X = MPC@4 ≤ 5 μg/mL)”. In addition, the “AZT MPC4 SHV-12 KP1010” value in test [16] was “X (X = MPC@4 ≤ 5 μg/mL)”. In addition, the “AZT MPC4 CTX-M-15 KP1009” value in test [17] is reported as “X (X = MPC@4 ≤ 5 μg/mL)”. In test [18], the “TIG MPC4 CTX-M-14 KP1005” value is reported as “X (X = MPC@4 ≤ 5 μg/mL)”.

Take `O=C([O-])c1c(C(F)F)ccc2c1O[B-](O)(O)CC2.[Na+].[Na+]` [Compound 50, Disodium; 8-(difluoromethyl)-4,4-dihydroxy-5-oxa-4-boranuidabicyclo[4.4.0]deca-1(6),7,9-triene-7-carboxylate]: the “BPM MPC1 KP1004 KPC-2” value in [1] is on record as “X (X = MPC@1 ≤ 5 μg/mL)”. The “BPM MPC1 OXA-48 KP1086” value in [2] is “X (X = MPC@1 ≤ 5 μg/mL)”. Further, the “MPM MPC8 AB1053 OXA-72” value in test [3] is given as “Y (Y = 5 μg/mL < MPC@1 ≤ 20 μg/mL)”. The “MPM MPC8 AB1054 OXA-23” value in test [4] is listed as “Y (Y = 5 μg/mL < MPC@1 ≤ 20 μg/mL)”. The Ki in [5] and in test [10] was below 100 nM in each case. For the same compound, the “Ki (P99, NCF), uM” value in [6] was “X (key: X = Ki ≤ 0.1 μM; Y = 0.1 μM < Ki ≤ 1 μM; Z = Ki > 1 μM)”. For the same compound, the “Ki (CTX-M-14, NCF), uM” value in test [7] is listed as “X (X = Ki ≤ 0.1 μM)”. Further, the “Ki (OXA-48, NCF), uM” value in [8] is reported as “X (X = Ki ≤ 0.1 μM)”. Moreover, in test [9], the “Ki (KPC-2, NCF), uM” value is recorded as “X (X = Ki ≤ 0.1 μM)”. Besides, the “AZT MPC4 ECL1002” value in [11] is recorded as “X (X = MPC@4 ≤ 5 μg/mL)”. The “AZT MPC4 SHV-5 ec308” value in [12] was “X (X = MPC@4 ≤ 5 μg/mL)”. Moreover, the “AZT MPC4 TEM-10 ec302” value in [13] was “X (X = MPC@4 ≤ 5 μg/mL)”. The “AZT MPC4 KPC-2 KP1004” value in test [14] was “X (X = MPC@4 ≤ 5 μg/mL)”. Also, the “AZT MPC4 CMY-6 EC1010” value in test [15] was “X (X = MPC@4 ≤ 5 μg/mL)”. Moreover, the “AZT MPC4 SHV-12 KP1010” value in test [16] is “X (X = MPC@4 ≤ 5 μg/mL)”. Further, the “AZT MPC4 CTX-M-15 KP1009” value in test [17] is given as “X (X = MPC@4 ≤ 5 μg/mL)”. In addition, in test [18], the “TIG MPC4 CTX-M-14 KP1005” value is “X (X = MPC@4 ≤ 5 μg/mL)”.

One may read the Ki as a dissociation constant, usually derived from enzyme kinetics or from competition with a known ligand.
